What was measured:
[1] = biological target: T1, NCX1 (Canis lupus familiaris, UniProt P23685); assay: High-throughput screening of NCX1 reverse mode, Fluo-4-loaded BHK-NCX1 cells, Na+-free pulse; type: cell-based, dog; conditions: for Activity on NCX (SAR discussion, in words): NCX1/NCX3 reverse-mode screening; for Fluo-experiments on BHK-NCX1: NCX1 reverse mode, Na+-free, CTL (100), concentration not given (10 nM and 10 μM screened)
T1 construct: expressed in transfected cells; host or cells: BHK (baby hamster kidney) cells, stably transfected

[2] = biological target: T2, NCX3 (Rattus norvegicus, UniProt P70549); assay: High-throughput screening of NCX3 reverse mode, Fluo-4-loaded BHK-NCX3 cells, Na+-free pulse; type: cell-based; conditions: CTL (100), concentration not given (10 nM and 10 μM screened)
T2 construct: expressed in transfected cells; host or cells: BHK (baby hamster kidney) cells, stably transfected
T2 sequence (P70549 31-927): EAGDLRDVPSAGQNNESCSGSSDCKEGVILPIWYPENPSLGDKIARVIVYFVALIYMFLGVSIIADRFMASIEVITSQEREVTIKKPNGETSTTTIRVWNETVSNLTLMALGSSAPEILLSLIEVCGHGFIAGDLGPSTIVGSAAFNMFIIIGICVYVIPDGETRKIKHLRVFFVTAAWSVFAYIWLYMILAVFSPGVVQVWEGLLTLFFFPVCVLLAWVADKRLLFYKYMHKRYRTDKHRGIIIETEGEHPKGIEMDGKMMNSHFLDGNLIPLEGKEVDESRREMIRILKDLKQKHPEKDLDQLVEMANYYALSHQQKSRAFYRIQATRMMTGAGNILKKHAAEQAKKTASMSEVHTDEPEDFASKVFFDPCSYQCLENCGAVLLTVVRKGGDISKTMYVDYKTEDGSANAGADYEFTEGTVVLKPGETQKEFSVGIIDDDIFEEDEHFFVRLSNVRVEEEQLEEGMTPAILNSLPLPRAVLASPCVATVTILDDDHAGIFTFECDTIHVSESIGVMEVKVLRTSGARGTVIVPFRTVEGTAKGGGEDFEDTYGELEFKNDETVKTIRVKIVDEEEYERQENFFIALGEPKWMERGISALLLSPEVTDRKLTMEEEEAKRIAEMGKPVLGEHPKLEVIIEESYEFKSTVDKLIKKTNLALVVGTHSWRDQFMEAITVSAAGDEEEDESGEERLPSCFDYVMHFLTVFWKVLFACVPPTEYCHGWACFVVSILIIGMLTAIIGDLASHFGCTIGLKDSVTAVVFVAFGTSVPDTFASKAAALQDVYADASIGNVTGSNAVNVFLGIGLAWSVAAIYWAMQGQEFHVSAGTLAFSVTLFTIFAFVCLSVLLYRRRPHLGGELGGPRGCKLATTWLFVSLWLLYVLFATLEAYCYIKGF

In the case of `O=C1CN=C(c2ccccc2)c2cc(Cl)ccc2N1CN1CCCC1` [Compound 2, 7-Chloro-5-phenyl-1-(pyrrolidin-1-ylmethyl)-1H-benzo[e][1,4]diazepin-2(3H)-one], the “Activity on NCX (SAR discussion, in words)” value (“Activity on NCX” below) [1] is reported as “inactivity”, the “Fluo-experiments on BHK-NCX1” value [1] is reported as 100 and the “Fluo-experiments on BHK-NCX3” value [2] is reported as 100.

With `O=C1CN=C(c2ccccc2)c2cc([N+](=O)[O-])ccc2N1CN1CCCCC1` [Compound 3, 7-Nitro-5-phenyl-1-(piperidin-1-ylmethyl)-1H-benzo[e][1,4]diazepin-2(3H)-one] the “Activity on NCX” value [1] was “complete loss of activity”, the “Fluo-experiments on BHK-NCX1” value [1] was 100 and the “Fluo-experiments on BHK-NCX3” value [2] was 100.

In the case of `O=C1CN=C(c2ccccc2)c2cc([N+](=O)[O-])ccc2N1CCN1CCCCC1` [Compound 5, 7-Nitro-5-phenyl-1-[2-(piperidin-1-yl)ethyl]-1H-benzo[e][1,4]diazepin-2(3H)-one], the “Activity on NCX” value [1] is reported as “inactive”, the “Fluo-experiments on BHK-NCX1” value [1] is reported as 100 and the “Fluo-experiments on BHK-NCX3” value [2] is reported as 100.

For `CC1CCCCN1CCN1C(=O)CN=C(c2ccccc2)c2cc([N+](=O)[O-])ccc21` (stereo not drawn) [Compound 6, 1-[2-(2-Methylpiperidin-1-yl)ethyl]-7-nitro-5-phenyl-1H-benzo[e][1,4]diazepin-2(3H)-one], the “Activity on NCX” value [1] was “inactive”, the “Fluo-experiments on BHK-NCX1” value [1] was 100 and the “Fluo-experiments on BHK-NCX3” value [2] was 100.

With `CC1CCCN(CCN2C(=O)CN=C(c3ccccc3)c3cc([N+](=O)[O-])ccc32)C1` (stereo not drawn) [Compound 7, 1-[2-(3-Methylpiperidin-1-yl)ethyl]-7-nitro-5-phenyl-1H-benzo[e][1,4]diazepin-2(3H)-one] the “Activity on NCX” value [1] was “inactive”, the “Fluo-experiments on BHK-NCX1” value [1] was 100 and the “Fluo-experiments on BHK-NCX3” value [2] was 100.

With `O=C1CN=C(c2ccccc2)c2cc([N+](=O)[O-])ccc2N1CCn1ccnc1` [Compound 8, 1-[2-(1H-Imidazole-1-yl)ethyl]-7-nitro-5-phenyl-1H-benzo[e][1,4]diazepin-2(3H)-one] the “Activity on NCX” value [1] was “complete loss of activity”, the “Fluo-experiments on BHK-NCX1” value [1] was 100 and the “Fluo-experiments on BHK-NCX3” value [2] was 100.

For `Cc1nccn1CCN1C(=O)CN=C(c2ccccc2)c2cc([N+](=O)[O-])ccc21` [Compound 9, 1-[2-(2-Methyl-1H-imidazole-1-yl)ethyl]-7-nitro-5-phenyl-1H-benzo[e][1,4]diazepin-2(3H)-one], the “Fluo-experiments on BHK-NCX1” value [1] was 100 and the “Fluo-experiments on BHK-NCX3” value [2] was 100.

In the case of `O=C1CN=C(c2ccccc2)c2cc([N+](=O)[O-])ccc2N1CCN1CCN(c2ccccc2)CC1` [Compound 10, 7-Nitro-5-phenyl-1-[2-(4-phenylpiperazin-1-yl)ethyl]-1H-benzo[e][1,4]diazepin-2(3H)-one], the “Fluo-experiments on BHK-NCX1” value [1] is reported as 100 and the “Fluo-experiments on BHK-NCX3” value [2] is reported as 100.

In the case of `O=C1CN=C(c2ccccc2)c2cc([N+](=O)[O-])ccc2N1CCN1CCN(c2cccc3ccccc23)CC1` [Compound 11, 1-{2-[4-(Naphthalen-1-yl)piperazin-1-yl]ethyl}-7-nitro-5-phenyl-1H-benzo[e][1,4]diazepin-2(3H)-one], the “Fluo-experiments on BHK-NCX1” value [1] is reported as 100 and the “Fluo-experiments on BHK-NCX3” value [2] is reported as 100.

In the case of `O=C(CN1C(=O)CN=C(c2ccccc2)c2cc([N+](=O)[O-])ccc21)N1CCCC1` [Compound 12, 7-Nitro-1-[2-Oxo-2-(pyrrolidin-1-yl)ethyl]-5-phenyl-1H-benzo[e][1,4]diazepin-2(3H)-one], the “Fluo-experiments on BHK-NCX1” value [1] is reported as 100 and the “Fluo-experiments on BHK-NCX3” value [2] is reported as 100.

For `O=C(CN1C(=O)CN=C(c2ccccc2)c2cc([N+](=O)[O-])ccc21)N1CCCCC1` [Compound 13, 7-Nitro-1-[2-Oxo-2-(piperidin-1-yl)ethyl]-5-phenyl-1H-benzo[e][1,4]diazepin-2(3H)-one], the “Fluo-experiments on BHK-NCX1” value [1] was 100 and the “Fluo-experiments on BHK-NCX3” value [2] was 100.

With `CC1CCCN(C(=O)CN2C(=O)CN=C(c3ccccc3)c3cc([N+](=O)[O-])ccc32)C1` (stereo not drawn) [Compound 15, 1-3-[(3-Methylpiperidin-1-yl)-2-oxoethyl]-7-nitro-5-phenyl-1H-benzo[e][1,4]-diazepin-2(3H)-one] the “Fluo-experiments on BHK-NCX1” value [1] was 100 and the “Fluo-experiments on BHK-NCX3” value [2] was 100.

For `O=C1CN=C(c2ccccc2)c2cc([N+](=O)[O-])ccc2N1CC(=O)n1ccnc1` [Compound 16, 1-[2-(1H-Imidazole-1-yl)-2-oxoethyl]-7-nitro-5-phenyl-1H-benzo[e][1,4]diazepin-2(3H)-one], the melting point was 120 to 121 °C, the “Fluo-experiments on BHK-NCX1” value [1] was 100 and the “Fluo-experiments on BHK-NCX3” value [2] was 100.

In the case of `Cc1nccn1C(=O)CN1C(=O)CN=C(c2ccccc2)c2cc([N+](=O)[O-])ccc21` [Compound 17, 1-[2-(2-Methyl-1H-imidazole-1-yl)-2-oxoethyl]-7-nitro-5-phenyl-1H-benzo[e][1,4]diazepin-2(3H)-one], the “Fluo-experiments on BHK-NCX1” value [1] is reported as 100 and the “Fluo-experiments on BHK-NCX3” value [2] is reported as 100.

With `O=C(CN1C(=O)CN=C(c2ccccc2)c2cc([N+](=O)[O-])ccc21)N1CCN(c2ccccc2)CC1` [Compound 18, 7-Nitro-1-[2-Oxo-2-(4-phenylpiperazin-1-yl)ethyl]-5-phenyl-1H-benzo[e][1,4]diazepin-2(3H)-one] the “Fluo-experiments on BHK-NCX1” value [1] was 100 and the “Fluo-experiments on BHK-NCX3” value [2] was 100.

For `O=C(CN1C(=O)CN=C(c2ccccc2)c2cc([N+](=O)[O-])ccc21)N1CCN(c2cccc3ccccc23)CC1` [Compound 19, 1-{2-[4-(Naphthalen-1-yl)piperazin-1-yl]-2-oxoethyl}-7-nitro-5-phenyl-1H-benzo[e][1,4]-diazepin-2(3H)-one], the “Fluo-experiments on BHK-NCX1” value [1] was 100 and the “Fluo-experiments on BHK-NCX3” value [2] was 100.
